In PubChem BioAssay (NCI):
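Five concentrations, 48 hours, 96-well plates. TGI marks complete inhibition of growth.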

Columns and labels:
Experiment in all cases: NCI-60 cell line screen, 48 h
OVCAR-5 ovarian = tested on: OVCAR-5 ovarian
SW-620 colon = tested on: SW-620 colon
HCC-2998 colon = tested on: HCC-2998 colon
K-562 leukemia = tested on: K-562 leukemia
T-47D breast = tested on: T-47D breast
786-0 renal = tested on: 786-0 renal
UACC-62 melanoma = tested on: UACC-62 melanoma
SNB-75 CNS = tested on: SNB-75 CNS
HOP-62 NSCLC = tested on: HOP-62 NSCLC
HL-60(TB) leukemia = tested on: HL-60(TB) leukemia
OVCAR-8 ovarian = tested on: OVCAR-8 ovarian
HCT-15 colon = tested on: HCT-15 colon
OVCAR-4 ovarian = tested on: OVCAR-4 ovarian
SN12C renal = tested on: SN12C renal
MDA-MB-231 breast = tested on: MDA-MB-231 breast
SF-295 CNS = tested on: SF-295 CNS
NCI-H226 lung = tested on: NCI-H226 lung
CAKI-1 renal = tested on: CAKI-1 renal
SK-OV-3 ovarian = tested on: SK-OV-3 ovarian
DU-145 prostate = tested on: DU-145 prostate
U251 CNS = tested on: U251 CNS
COLO 205 colon = tested on: COLO 205 colon
SF-539 CNS = tested on: SF-539 CNS
IGROV1 ovarian = tested on: IGROV1 ovarian
HT29 colon = tested on: HT29 colon
HOP-92 NSCLC = tested on: HOP-92 NSCLC
MDA-MB-435 = tested on: MDA-MB-435
NCI-H460 lung = tested on: NCI-H460 lung
MCF7 breast = tested on: MCF7 breast
RXF 393 renal = tested on: RXF 393 renal
A498 renal = tested on: A498 renal
HS 578T breast = tested on: HS 578T breast
HCT-116 colon = tested on: HCT-116 colon
NCI-H23 lung = tested on: NCI-H23 lung
MDA-N = tested on: MDA-N
KM12 colon = tested on: KM12 colon
NCI/ADR-RES ovarian = tested on: NCI/ADR-RES ovarian
SR leukemia = tested on: SR leukemia
UACC-257 melanoma = tested on: UACC-257 melanoma
PC-3 prostate = tested on: PC-3 prostate
MALME-3M melanoma = tested on: MALME-3M melanoma
LOX IMVI melanoma = tested on: LOX IMVI melanoma
RPMI-8226 leukemia = tested on: RPMI-8226 leukemia
TK-10 renal = tested on: TK-10 renal
SK-MEL-5 melanoma = tested on: SK-MEL-5 melanoma
SF-268 CNS = tested on: SF-268 CNS
NCI-H522 lung = tested on: NCI-H522 lung
ACHN renal = tested on: ACHN renal
BT-549 breast = tested on: BT-549 breast
CCRF-CEM leukemia = tested on: CCRF-CEM leukemia
OVCAR-3 ovarian = tested on: OVCAR-3 ovarian
EKVX NSCLC = tested on: EKVX NSCLC
SK-MEL-2 melanoma = tested on: SK-MEL-2 melanoma
SK-MEL-28 melanoma = tested on: SK-MEL-28 melanoma
M14 melanoma = tested on: M14 melanoma
SNB-19 CNS = tested on: SNB-19 CNS
UO-31 renal = tested on: UO-31 renal
MOLT-4 leukemia = tested on: MOLT-4 leukemia
A549 NSCLC = tested on: A549 NSCLC

Measured: TGI

Cc1c(-c2ccccc2)c(C#N)c2nnn(-c3cccc(Cl)c3)c(=O)n12
67.2 µM: SK-MEL-2 melanoma
75.9 µM: PC-3 prostate
72.9 µM: MDA-MB-231 breast
86.6 µM: 786-0 renal
98.5 µM: A498 renal
not listed: M14 melanoma | SNB-19 CNS | UO-31 renal | MOLT-4 leukemia | A549 NSCLC
> 100 µM: all other assays above

CC(=O)Nc1ccc2cc3[nH]c4cc(NC(C)=O)ccc4c3nc2c1
77.3 µM: MOLT-4 leukemia
not listed: HL-60(TB) leukemia
> 100 µM: all other assays above

Cc1cc(C)n(CN(Cn2nc(C)cc2C)c2ccccc2)n1
41.4 µM: HCT-116 colon
40.8 µM: NCI-H23 lung
69.8 µM: SW-620 colon
66.6 µM: OVCAR-3 ovarian
28.1 µM: COLO 205 colon
27.6 µM: MDA-N
52 µM: OVCAR-4 ovarian
44.6 µM: SK-MEL-2 melanoma
69.2 µM: BT-549 breast
26.5 µM: UACC-62 melanoma
14.9 µM: SR leukemia
44 µM: U251 CNS
48.5 µM: 786-0 renal
38.9 µM: RXF 393 renal
23.8 µM: LOX IMVI melanoma
31.1 µM: M14 melanoma
83.9 µM: CCRF-CEM leukemia
46.1 µM: K-562 leukemia
66.8 µM: HOP-62 NSCLC
69.6 µM: OVCAR-5 ovarian
27.3 µM: HL-60(TB) leukemia
57.7 µM: NCI/ADR-RES ovarian
35.6 µM: HT29 colon
98.7 µM: SN12C renal
61 µM: UACC-257 melanoma
38.3 µM: SF-539 CNS
29.1 µM: MDA-MB-435
62.4 µM: SK-MEL-5 melanoma
28.3 µM: MOLT-4 leukemia
52.7 µM: MALME-3M melanoma
95.2 µM: IGROV1 ovarian
34.7 µM: SK-MEL-28 melanoma
52.6 µM: SF-268 CNS
56 µM: OVCAR-8 ovarian
68.1 µM: MCF7 breast
51.5 µM: ACHN renal
42.6 µM: KM12 colon
47.6 µM: RPMI-8226 leukemia
50.2 µM: HCT-15 colon
72.8 µM: EKVX NSCLC
52.8 µM: NCI-H522 lung
78.5 µM: UO-31 renal
not listed: HCC-2998 colon | SNB-75 CNS | NCI-H226 lung
> 100 µM: all other assays above

Nc1ccccc1N=Nc1c(S(=O)(=O)O)cc2cc(S(=O)(=O)O)cc(O)c2c1O
not listed: HL-60(TB) leukemia | SF-539 CNS | NCI-H460 lung | SK-MEL-2 melanoma
> 100 µM: all other assays above

C=C1CC(CN2CCC(=O)NC2=O)(c2ccccc2)OC1=O (stereo not given)
16.7 µM: LOX IMVI melanoma
37.6 µM: A498 renal
11.7 µM: T-47D breast
23.6 µM: MDA-MB-435
33.4 µM: SN12C renal
50.4 µM: SF-268 CNS
27.3 µM: SK-MEL-28 melanoma
38.2 µM: NCI-H460 lung
2.71 µM: MCF7 breast
15.6 µM: 786-0 renal
3.55 µM: OVCAR-4 ovarian
10.9 µM: K-562 leukemia
19.9 µM: BT-549 breast
30.8 µM: UACC-257 melanoma
7.9 µM: MOLT-4 leukemia
8.78 µM: MALME-3M melanoma
29 µM: OVCAR-5 ovarian
7.95 µM: RPMI-8226 leukemia
27.9 µM: SK-MEL-2 melanoma
23.8 µM: ACHN renal
21.3 µM: UACC-62 melanoma
36.7 µM: OVCAR-8 ovarian
40.3 µM: HOP-62 NSCLC
46.8 µM: KM12 colon
32.3 µM: SNB-75 CNS | UO-31 renal
29.7 µM: HCC-2998 colon
24.8 µM: SK-MEL-5 melanoma
31.7 µM: OVCAR-3 ovarian
32.1 µM: MDA-MB-231 breast | U251 CNS
12.2 µM: HCT-116 colon
34.3 µM: NCI-H226 lung
43 µM: SF-295 CNS
6.25 µM: COLO 205 colon
25.3 µM: HT29 colon
32.8 µM: NCI/ADR-RES ovarian
5.26 µM: SR leukemia
4.92 µM: CCRF-CEM leukemia
40 µM: EKVX NSCLC
7.57 µM: CAKI-1 renal
33 µM: A549 NSCLC
30.1 µM: DU-145 prostate
2.17 µM: NCI-H522 lung
34.6 µM: HS 578T breast
> 56.2 µM: SNB-19 CNS
30.4 µM: SK-OV-3 ovarian | PC-3 prostate
22.5 µM: NCI-H23 lung
4.78 µM: SW-620 colon
12.8 µM: M14 melanoma
4.04 µM: HL-60(TB) leukemia
26.7 µM: MDA-N
28.4 µM: SF-539 CNS
20.7 µM: IGROV1 ovarian
3.07 µM: HOP-92 NSCLC
19.1 µM: TK-10 renal
18.5 µM: HCT-15 colon

COc1ncnc2c1cnn2Cc1cn(CCCCO)nn1
not listed: SNB-75 CNS | HL-60(TB) leukemia
> 100 µM: all other assays above

O=[N+]([O-])c1nccn1CCCNCCCn1ccnc1[N+](=O)[O-]
not listed: HCC-2998 colon | SNB-19 CNS
> 100 µM: all other assays above
